System: Human corpus cavernosum tissue
Assay: In vitro comparative relaxation responses (isometric tension of tissue strips in organ chambers)
Assay type: cell-based
Settings: doses of 10 μM and 30 μM; tissue contracted with phenylephrine 7×10^−7 M; compared with equimolar dipyridamole; FIG. 58
Description: Human corpus cavernosum tissue biopsies were obtained at the time of penile prosthesis implantation from impotent men. The tissue was maintained in a chilled Krebs-bicarbonate solution prior to assay. The tissue was cut into strips of 0.3×0.3×1 cm and suspended in organ chambers for isometric tension measurement. Tissues were incrementally stretched until optimal isometric tension for contraction was obtained. Once this was achieved, the tissues were contracted with phenylephrine (7×10^−7 M) and once a stable contraction was achieved, the tissues were exposed to either dipyridamole or the compound of Example 1 (10^−6 to 3×10^−5 M) by cumulative additions to the chamber. At the end of the experiment, papaverine (10^−4 M) was added to obtain maximal relaxation. […] Data were expressed as the percent loss in tone from the phenylephrine-induced contraction (0%=phenylephrine contraction; −100%=tone after administration of papaverine).

CC(C)(CC(=O)OCCN(CCOC(=O)CC(C)(C)SN=O)c1nc(N2CCCCC2)c2nc(N(CCOC(=O)CC(C)(C)SN=O)CCOC(=O)CC(C)(C)SN=O)nc(N3CCCCC3)c2n1)SN=O [Example 1, 2,6-bis(Diethyl(3-methyl-3-(nitrosothio)butyric acid ester)amino)-4,8-dipiperidinopyrimido-[5,4-d]-pyrimidine]
relaxing the phenylephrine-induced contraction (percent loss in tone from the phenylephrine-induced contraction): more efficacious

Reference: US6930113B2, “Nitrosated and nitrosylated phosphodiesterase inhibitors, compositions and methods of use” (Nitromed, Inc., priority 1996, dated 2005)
